Measurements published in patent publication EP1240898A2, “Use of 2-deoxy ecdysterone for the preparation of a medicament for inducing labour or abortion” (Council of Scientific and Industrial Research, priority 2000, dated 2001).

What was measured:
[1] = tested on: guinea pig uterus; test: Oxytocic activity on isolated guinea pig uterus (height of contraction compared with standard oxytocin or PGF2α); format: cell-based; settings: at the concentration of 200 µg/ml
[2] = radiolabelled, injected into human volunteers, within 5 hours; cited from earlier work

| Structure (SMILES) | potency compared with the standards (in words) [1] | radioactivity excreted in the urine [2] |
| --- | --- | --- |
| CC(C)(O)CC[C@@H](O)[C@](C)(O)[C@H]1CC[C@@]2(O)C3=CC(=O)[C@@H]4C[C@@H](O)CC[C@]4(C)[C@H]3CC[C@]12C [2-deoxy ecdysterone] | more potent than the standard oxytocin and PGF2α |  |
| CCCCC[C@H](O)/C=C/[C@@H]1[C@@H](C/C=C\CCCC(=O)O)[C@@H](O)C[C@H]1O [PGF2α] |  | around 90% |
| CCCCC[C@H](O)/C=C/[C@H]1[C@H](O)CC(=O)[C@@H]1C/C=C\CCCC(=O)O [PGE2] |  | about 50% |
